Reference: patent US10927136B2, “Phosphorus prodrugs of pyrazolo-substituted pyrimidine sGC stimulators” (Cyclerion Therapeutics, Inc., priority 2016, dated 2021)
Values after ≈ are worked out from the molar mass of the structure shown. Like-named read-outs stand apart in the source and are kept apart here.

Assays:
[1] = Thermodynamic solubility measurements; format: physicochemical; conditions: aqueous buffer, pH 7, aqueous buffer, thermodynamic from solid
Experimental: Approximately 1 mg of test compound was weighed into 1.5 mL Eppendorf tubes and 1.5 mL of aqueous buffer of a given pH was added. The samples were vortexed and placed on a shaker at 150 RPM for 2-5 days. The samples were harvested and then centrifuged at 12 K RPM for 20 minutes. The supernatant was diluted twice with Acetonitrile (ACN) and analyzed by UPLC. To dilute the samples, 200 uL of supernatant was taken and discarded. Then, 400 uL of supernatant (with 200 uL intervals) was taken and added to 400 uL of acetonitrile (with 200 uL intervals).
UPLC conditions: Mobile Phase A: 0.1% TFA in Water; Mobile Phase B: 0.1% TFA in Acetonitrile; Column: Acquity BEH C18, 1.7 um, 2.1×50 mm; Injection Volume: 2-3 uL; Autosampler Temperature: Ambient; Column Temperature: 25° C.; Run Time: 10 minutes; Flow Rate: 0.45 mlJmin; Collected Wavelengths: 220 nm, 245 nm, 254 nm, 280 nm, PDA Spectrum (190-400 nm); Wavelength Used for Analysis: 254 nm

[2] = target: T1, soluble guanylate cyclase (sGC) (Homo sapiens, UniProt Q02108+Q02153); assay: sGC-HEK-cGMP assay with LC/MS detection; format: cell-based; conditions: for EC50: HEK293 cells, 10 μM DETA-NONOate, cGMP by LC/MS, read-out: Absolute EC50; for sGC agonism as compared to parent drug: HEK assay with LC/MS detection
T1 construct: endogenously expressing soluble guanylate cyclase (sGC); endogenous in cells; host or cells: HEK293
T1 sequence (Q02153 1-619): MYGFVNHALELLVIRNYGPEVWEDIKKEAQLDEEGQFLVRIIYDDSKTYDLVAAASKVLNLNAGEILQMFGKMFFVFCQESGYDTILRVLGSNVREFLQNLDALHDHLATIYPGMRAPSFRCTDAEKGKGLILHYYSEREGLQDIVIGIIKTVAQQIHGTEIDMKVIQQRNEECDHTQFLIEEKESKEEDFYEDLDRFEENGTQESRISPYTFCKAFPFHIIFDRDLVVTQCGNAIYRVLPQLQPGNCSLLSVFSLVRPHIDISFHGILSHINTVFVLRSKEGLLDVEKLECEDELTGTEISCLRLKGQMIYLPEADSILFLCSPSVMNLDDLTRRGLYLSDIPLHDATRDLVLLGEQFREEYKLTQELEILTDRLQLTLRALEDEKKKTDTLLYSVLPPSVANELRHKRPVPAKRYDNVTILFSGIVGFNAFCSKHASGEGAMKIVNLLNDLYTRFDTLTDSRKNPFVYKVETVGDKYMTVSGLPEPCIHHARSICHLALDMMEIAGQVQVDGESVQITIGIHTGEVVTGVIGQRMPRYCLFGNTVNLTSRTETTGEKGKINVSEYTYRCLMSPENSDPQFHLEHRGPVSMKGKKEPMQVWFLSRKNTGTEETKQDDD
T1 sequence (Q02108 1-690): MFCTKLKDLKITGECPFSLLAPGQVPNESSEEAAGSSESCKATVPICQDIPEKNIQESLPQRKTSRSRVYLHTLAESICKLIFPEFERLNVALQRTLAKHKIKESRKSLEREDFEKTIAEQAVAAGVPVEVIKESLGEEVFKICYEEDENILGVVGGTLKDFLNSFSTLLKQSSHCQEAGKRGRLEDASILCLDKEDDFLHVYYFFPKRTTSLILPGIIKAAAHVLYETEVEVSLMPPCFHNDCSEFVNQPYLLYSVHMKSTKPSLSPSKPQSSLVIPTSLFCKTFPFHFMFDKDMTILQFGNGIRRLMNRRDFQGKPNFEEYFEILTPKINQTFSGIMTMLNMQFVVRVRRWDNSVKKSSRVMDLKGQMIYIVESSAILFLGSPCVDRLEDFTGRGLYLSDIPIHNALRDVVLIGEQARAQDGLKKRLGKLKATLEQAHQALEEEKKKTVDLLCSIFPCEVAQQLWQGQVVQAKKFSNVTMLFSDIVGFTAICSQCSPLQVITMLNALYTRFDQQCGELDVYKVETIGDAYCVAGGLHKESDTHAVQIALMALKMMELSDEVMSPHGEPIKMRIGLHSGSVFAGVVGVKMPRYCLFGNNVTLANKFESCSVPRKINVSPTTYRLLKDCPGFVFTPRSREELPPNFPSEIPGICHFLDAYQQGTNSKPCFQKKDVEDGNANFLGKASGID
Experimental: Human embryonic kidney cells (HEK293), endogenously expressing soluble guanylate cyclase (sGC), were used to evaluate the activity of test compounds. Compounds stimulating the sGC enzyme should cause an increase in the intracellular concentration of cGMP. HEK 293 cells were seeded in Dulbecco's Modification of Eagle's Medium supplemented with fetal bovine serum (10% final) and penicillin (100 U/mL)/streptomycin (100 μg/mL) in a 50 μL volume at a density of 1.5×10^4 cells/well in a poly-D-lysine coated 384 well flat bottom plate. Cells were incubated overnight at 37° C. in a humidified chamber with 5% CO2. Medium was aspirated and cells were washed with 1×Hank's Buffered Saline Salt Solution (50 μL). Cells were then incubated for 15 minutes at 37° C. with 50 μL of a 0.5 mM 3-isobutyl-1-methylxanthine (IBMX) solution. The test article and Diethylenetriamine NONOate (DETA-NONOate) solutions (x μM concentration for test article solution and 10 μM concentration for DETA-NONOate solution; wherein x is one of the following concentrations)
were then added to the assay mixture and the resulting mixture was incubated at 37° C. for 20 minutes. After the 20 minute incubation, the assay mixture was aspirated and 10% acetic acid containing 150 ng/mL+3-cGMP (internal standard for LCMS) (50 μL) was added to the cells. The plate was incubated at 4° C. for 30 minutes in the acetic acid solution to stop the reaction and lyse the cells. The plates were then centrifuged at 1,000 g for 3 minutes at 4° C. and the supernatant transferred to a clean reaction plate for LCMS analysis.
cGMP concentrations were determined from each sample using the LCMS conditions below (Table 2) and calculated standard curve. The standard curve was prepared in 10% acetic acid with 150 ng/mL+3cGMP (isotopically labelled cGMP with a weight 3 units higher than wild type) with the following final concentrations of cGMP in ng/mL: 1, 5, 10, 50, 100, 250, 500, 1000, 2000.
Data were normalized to a high control using the following equation: 100*(Sample−Low Control)/(High Control−Low Control), where the low control is the average of 16 samples treated with 1% DMSO, and the high control is the average of 16 samples treated with 30 μM of Compound Y depicted below. Data were fit using a 4-parameter fit (log(agonist) vs. response—variable slope) using GraphPad Prism Software v.5. n=2 for all compounds. The Absolute EC50 was interpolated from the curve fit and is defined as the concentration at which a given compound elicits 50% of the high control response. Compounds failing to elicit a minimum response of 50% are reported as >30 μM. For compounds run in duplicate or n higher than 2, the result herein given is the geometric mean of the several results obtained.
sGC enzyme activity values in HEK cells, expressed as Absolute EC50 which is defined as the concentration at which a given compound elicits 50% of the high control response obtained with Compound Y, after normalization.

O=P(O)(O)OC(CNc1nc(-c2cc(-c3ccon3)n(Cc3ccccc3F)n2)ncc1F)(C(F)(F)F)C(F)(F)F [Compound I-1]
solubility [1]: 66 to 1000 µg/mL (≈ 107 to 1630 µM) | EC50 ([2]; prodrug): 13 µM | sGC agonism as compared to parent drug [2]: did not exhibit a high degree of sGC agonism

O=P(O)(O)OCOC(CNc1nc(-c2cc(-c3ccon3)n(Cc3ccccc3F)n2)ncc1F)(C(F)(F)F)C(F)(F)F [Compound I-4]
solubility [1]: 71 µg/mL (≈ 110 µM) | EC50 ([2]; prodrug): 25 µM | sGC agonism as compared to parent drug [2]: did not exhibit a high degree of sGC agonism

OC(CNc1nc(-c2cc(-c3ccon3)n(Cc3ccccc3F)n2)ncc1F)(C(F)(F)F)C(F)(F)F [Intermediate 3]
solubility [1]: 2 to 3 µg/mL (≈ 3.74 to 5.61 µM) | EC50 ([2]; Parent compound column): 0.22 µM
